Experimental data: patent US20240368163A1, “COMPOUNDS AND METHODS FOR MODULATING SPLICING” (REMIX THERAPEUTICS INC., priority 2021, published 2024)
Read-outs that look alike come from different tables or passages of the source.

How the values were obtained:
SMN2 = test: Splicing RT-qPCR panel, SMN2 canonical junction (CJ) mRNA; format: cell-based, human; details: read-out: SMN2 IC50 (decrease in CJ mRNA levels)
How it was run: (§1)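 Cells: A673 (DMEM/10% FBS) or K562 (IMDM/10% FBS). Dose: 11-pt 3-fold, top 10 uM final, ≤0.25% DMSO, 24 h, 37 °C. Readout: RT-qPCR of CJ/AJ exon junctions, ΔΔCt vs housekeeper and DMSO, RQ to % response.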

HTT = test: Splicing RT-qPCR assay, HTT mRNA canonical junction (CJ) and alternative junction (AJ); format: cell-based, human; details: for AC50: increase in AJ mRNA
How it was run: as §1

[1] = Transwell assay for membrane efflux and permeability; format: in vitro ADME, Canine; details: dog; MDCK-BCRP or MDCKII-MDR1 transwell, test compound 1 μM, 2 hours at 37° C.
From the text: Compounds described herein were screened for cell membrane permeability and efflux in a transwell assay using Madin-Darby Canine Kidney (MDCK) cells expressing Breast Cancer Resistance Protein (BCRP) or subclone MDCKII cells expressing Multidrug Resistance Protein 1 (MDR1).
MDCK-BCRP or MDCKII-MDR1 Cells: The Netherlands Cancer Institute, High Glucose Dulbecco's Modified Eagle's Medium (DMEM): Gibco/Thermo Fisher Scientific, Fetal Bovine Serum (FBS): Coming, Hank's Balanced Salt Solution (HBSS) and Trypsin/EDTA: Gibco/Thermo Fisher Scientific, HTS Transwell-96 Well Permeable Supports: Coming Corporation, Millicell Epithelial Volt-Ohm: Millipore, Cellometer® Vision: Nexcelom Bioscience LLC, Infinite 200 PRO microplate reader: Tecan, MTS2/4 orbital shaker: IKA Labortechnik, HEPES/Penicillin/Streptomycin: Solarbio.
MDCK-BCRP or MDCKII-MDR1 cells were seeded to each of the wells of the transwell plate at a density of 1.6×10^6 cells/mL and the plate was incubated for 4-8 days with medium changes every two days. To perform the drug transport assay, cell monolayers were first washed three times with pre-warmed HBSS and then incubated with gentle shaking (150 rpm) for 30 min at 37° C. Stock solutions of test compounds (e.g., exemplary compounds of Formulas (I), (II), and (III)) and control compounds (e.g., metoprolol, prazosin, and/or imatinib) were prepared in DMSO and adjusted to a working solution using HBSS. The final concentration of test compounds was 1 μM with DMSO; 0.5%. The plates were incubated at 37° C. for 2 hours.

Target C = test: Splicing RT-qPCR panel, Target C canonical junction (CJ) mRNA; format: cell-based, human; details: read-out: Target C IC50 (decrease in CJ mRNA levels)
How it was run: as §1

[2] = Homo sapiens, RT-qPCR panel, canonical junction mRNA, compound concentration having 50% response in CJ decrease
[3] = Homo sapiens, 24 h, decrease in CJ mRNA, A673 or K562 cells, 24 hours treatment, RT-qPCR, read-out: HTT CJ IC50
[4] = Homo sapiens, 24 h, A673 or K562 cells, 24 hours treatment, RT-qPCR
[5] = Homo sapiens, RT-qPCR panel, canonical junction mRNA, compound concentration having 50% response in CJ decrease, read-out: HTT IC50 (decrease in CJ mRNA levels)
[6] = Homo sapiens, gene panel, CJ qPCR, protocol of Example 142
[7] = Homo sapiens, gene panel, CJ qPCR, protocol of Example 142, read-out: HTT IC50 (decrease in CJ mRNA levels)
[8] = RT-qPCR panel, canonical junction mRNA, compound concentration having 50% response in CJ decrease, read-out: HTT IC50 (decrease in CJ mRNA levels)
[9] = RT-qPCR panel, canonical junction mRNA, compound concentration having 50% response in CJ decrease

Row | IC50 (HTT; decrease in CJ mRNA, A673 or K562 cells, 24 hours treatment, RT-qPCR, read-out: HTT CJ IC50) | Compound | IC50 (SMN2; [2]) | IC50 (HTT; [3]) | AC50 (HTT; [4]) | IC50 (HTT; [5]) | Papp at 2 h, 1 μM [1] | efflux ratio at 2 h, 1 μM [1] | IC50 (Target C; [2]) | IC50 (SMN2; [6]) | IC50 (HTT; [7]) | IC50 (Target C; [6]) | IC50 (HTT; [8]) | IC50 (Target C; [9]) | IC50 (SMN2; [9])
1 |  | CN(c1ccc(-c2ccc(-c3cnn(C)c3)c3cn[nH]c23)nn1)C1CCNCC1 [Compound 242] | 1000 to 10000 nM | > 10000 nM | > 10000 nM | > 10000 nM | < 2 ×10⁻⁶ cm/s | > 5 | > 10000 nM |  |  |  |  |  | 
2 |  | CN(c1ncc(-c2ccc(-n3cccn3)c3[nH]ncc23)nn1)[C@@H]1C[C@H]2CCC[C@@H](C1)N2 [Compound 551] | < 100 nM |  |  | < 100 nM | 2 to 6 ×10⁻⁶ cm/s | > 5 | < 100 nM |  |  |  |  |  | 
3 |  | CN(c1ccc(-c2ccc(-c3cn[nH]c3)c(C#N)n2)nn1)[C@@H]1C[C@H]2CC[C@@H](C1)N2 [Compound 930] |  |  |  |  | < 2 ×10⁻⁶ cm/s | > 5 |  | < 100 nM | < 100 nM | 100 to 1000 nM |  |  | 
4 |  | c1n[nH]cc1-c1ccc(-c2ccc(N[C@@H]3C[C@H]4CCC[C@@H](C3)N4)nn2)c2[nH]ncc12 [Compound 294] | < 100 nM | 100 to 1000 nM | 100 to 1000 nM | 100 to 1000 nM | < 2 ×10⁻⁶ cm/s | 1.5 to 5 | 100 to 1000 nM |  |  |  |  |  | 
5 |  | COc1nc(-c2ccc(O[C@@H]3C[C@H]4CC[C@@H](C3)N4)nn2)ccc1-c1cnc(C)s1 [Compound 962] |  |  |  |  | 2 to 6 ×10⁻⁶ cm/s | 1.5 to 5 |  | 100 to 1000 nM | 100 to 1000 nM | 1000 to 10000 nM |  |  | 
6 |  | CN(c1ncc(-c2ccc(-n3ccnn3)c3[nH]ncc23)nn1)[C@@H]1C[C@H]2CCC[C@@H](C1)N2 [Compound 576] | 100 to 1000 nM |  |  | < 100 nM | < 2 ×10⁻⁶ cm/s | > 5 | 100 to 1000 nM |  |  |  |  |  | 
7 |  | Fc1cc(-c2ccc(N[C@@H]3C[C@H]4CC[C@@H](C3)N4)nn2)c2scnc2c1-c1cn[nH]c1 [Compound 339] | < 100 nM |  | < 100 nM | < 100 nM | < 2 ×10⁻⁶ cm/s | 1.5 to 5 | < 100 nM |  |  |  |  |  | 
8 |  | COc1nc(-c2ccc(OC3CC(C)(C)NC(C)(C)C3)nn2)ccc1-c1cn[nH]c1 [Compound 917] |  |  |  |  | 2 to 6 ×10⁻⁶ cm/s | > 5 |  | < 100 nM | 100 to 1000 nM | 100 to 1000 nM |  |  | 
9 |  | CC(C)(C)C1CN(c2ncc(-c3ccc(-n4cccn4)c4[nH]ncc34)nn2)CCN1 (stereo not drawn) [Compound 572] | 100 to 1000 nM |  |  | < 100 nM | < 2 ×10⁻⁶ cm/s | < 1.5 | 100 to 1000 nM |  |  |  |  |  | 
10 |  | CN(c1ccc(-c2ccc(-c3cn[nH]c3)c(OC3CC3)n2)nn1)[C@@H]1C[C@H]2CC[C@@H](C1)N2 [Compound 939] |  |  |  |  | < 2 ×10⁻⁶ cm/s | > 5 |  | < 100 nM | < 100 nM | 100 to 1000 nM |  |  | 
11 |  | COc1nc(-c2ccc(N(C)C3CC(C)(C)NC(C)(C)C3)nn2)ccc1-c1cn[nH]c1 [Compound 919] |  |  |  |  | < 2 ×10⁻⁶ cm/s | > 5 |  | < 100 nM | < 100 nM | 100 to 1000 nM |  |  | 
12 |  | COc1nc(-c2ccc(N(C)[C@@H]3C[C@H]4CC[C@@H](C3)N4)nn2)ccc1-c1cn[nH]c1 [Compound 906] |  |  |  |  | < 2 ×10⁻⁶ cm/s | > 5 |  | < 100 nM | < 100 nM | < 100 nM |  |  | 
13 |  | [2H]C([2H])([2H])N(c1ccc(-c2ccc(-c3cn[nH]c3)c3ncsc23)nn1)[C@@H]1C[C@H]2CCC[C@@H](C1)N2 [Compound 227] | < 100 nM |  | < 100 nM | < 100 nM | < 2 ×10⁻⁶ cm/s | > 5 | < 100 nM |  |  |  |  |  | 
14 |  | [2H]C([2H])([2H])N(c1ccc(-c2ccc(-c3cn[nH]c3)c3ncsc23)nn1)[C@@H]1C[C@H]2CC[C@@H](C1)N2 [Compound 210] | < 100 nM |  | < 100 nM | < 100 nM | < 2 ×10⁻⁶ cm/s | > 5 | < 100 nM |  |  |  |  |  | 
15 |  | Cc1ncc(-c2ccc(-c3ccc(O[C@@H]4C[C@H]5CC[C@@H](C4)N5)nn3)c3scnc23)s1 [Compound 348, 7-{6-[(exo)-8-azabicyclo[3.2.1]octan-3-yloxy]pyridazin-3-yl}-4-(2-methyl-1,3-thiazol-5-yl)-1,3-benzothiazole] | < 100 nM |  | 100 to 1000 nM | < 100 nM | < 2 ×10⁻⁶ cm/s | > 5 | 100 to 1000 nM |  |  |  |  |  | 
16 |  | COc1nc(-c2ccc(N(C)C3CC(C)(C)NC(C)(C)C3)nn2)ccc1-c1cnn(C)c1 [Compound 920] |  |  |  |  | 2 to 6 ×10⁻⁶ cm/s | > 5 |  | < 100 nM | 100 to 1000 nM | 100 to 1000 nM |  |  | 
17 |  | CN(c1ccc(-c2ccc(-c3cn[nH]c3)c3cn[nH]c23)nn1)[C@@H]1C[C@H]2CC[C@@H](C1)N2 [Compound 104] | < 100 nM | 100 to 1000 nM | 1000 to 10000 nM | 100 to 1000 nM | < 2 ×10⁻⁶ cm/s | > 5 | 100 to 1000 nM |  |  |  |  |  | 
18 |  | CN(c1ncc(-c2ccc(-n3cncn3)c3[nH]ncc23)nn1)[C@@H]1C[C@H]2CCC[C@@H](C1)N2 [Compound 574] | < 100 nM |  |  | < 100 nM | < 2 ×10⁻⁶ cm/s | > 5 | < 100 nM |  |  |  |  |  | 
19 |  | COc1nc(-c2ccc(OC3CC(C)(C)NC(C)(C)C3)nn2)ccc1-c1cnn(C)c1 [Compound 918] |  |  |  |  | 2 to 6 ×10⁻⁶ cm/s | > 5 |  | < 100 nM | 100 to 1000 nM | 100 to 1000 nM |  |  | 
20 | 100 to 1000 nM | CC(C)(C)NC1CCN(c2ccc(-c3ccc(-c4cn[nH]c4)c4ncsc34)nn2)C1 (stereo not drawn) [Compound 336] | < 100 nM |  |  |  | 2 to 6 ×10⁻⁶ cm/s | > 5 |  |  |  |  | 100 to 1000 nM | > 10000 nM | 
21 |  | COc1nc(-c2ccc(OC3CC(C)(C)NC(C)(C)C3)nn2)cc(F)c1-c1cn[nH]c1 [Compound 965] |  |  |  |  | 2 to 6 ×10⁻⁶ cm/s | > 5 |  | < 100 nM | < 100 nM | 100 to 1000 nM |  |  | 
22 |  | CC(C)(C)[C@H]1CN(c2ncc(-c3ccc(-n4cccn4)c4[nH]ncc34)nn2)CCN1 [Compound 581] | 100 to 1000 nM |  |  | < 100 nM | 2 to 6 ×10⁻⁶ cm/s | < 1.5 | 100 to 1000 nM |  |  |  |  |  | 
23 |  | COc1nc(-c2ccc(N(C)[C@@H]3C[C@H]4CC[C@@H](C3)N4)nn2)cc(F)c1-c1cn[nH]c1 [Compound 931] |  |  |  |  | < 2 ×10⁻⁶ cm/s | > 5 |  | < 100 nM | < 100 nM | < 100 nM |  |  | 
24 |  | Fc1cc(-c2ccc(O[C@@H]3C[C@H]4CC[C@@H](C3)N4)nn2)c2[nH]ncc2c1-c1cn[nH]c1 [Compound 216] | < 100 nM |  | < 100 nM | < 100 nM | < 2 ×10⁻⁶ cm/s | > 5 | 100 to 1000 nM |  |  |  |  |  | 
25 |  | Fc1cc(-c2ccc(O[C@@H]3C[C@H]4CC[C@@H](C3)N4)nn2)c2sncc2c1-c1cn[nH]c1 [Compound 327] | < 100 nM |  | < 100 nM | < 100 nM | 2 to 6 ×10⁻⁶ cm/s | > 5 | < 100 nM |  |  |  |  |  | 
26 |  | CN(c1ccc(-c2ccc(-c3cn[nH]c3)c3ncsc23)nn1)[C@H]1C[C@H]2COC[C@@H](C1)N2 [Compound 356, (endo)-N-methyl-N-{6-[4-(1H-pyrazol-4-yl)-1,3-benzothiazol-7-yl]pyridazin-3-yl}-3-oxa-9-azabicyclo[3.3.1]nonan-7-amine] |  |  |  |  |  |  |  |  |  |  | < 100 nM | < 100 nM | < 100 nM
